Drawing on PubChem BioAssay AID1259407 (Chemical Carcinogenesis Research Information System (CCRIS), 2018), this text covers mutagenic call for eight compounds.

Activity calls are given as the source filed them. How the calls were made is not given here.

This series deals with CCRIS mutagenicity, Ames/micronucleus/aberration tests. Description: CCRIS mutagenicity studies.
Setting [1] is: Test System: AMES SALMONELLA TYPHIMURIUM, Strain/Indicator: TA97, Metabolic Activation: NONE, Method: STANDARD PLATE.
The mark [2] stands for this setting: Test System: AMES SALMONELLA TYPHIMURIUM, Strain/Indicator: TA98, Metabolic Activation: NONE, Method: STANDARD PLATE.
[3] abbreviates: Test System: AMES SALMONELLA TYPHIMURIUM, Strain/Indicator: TA98, Metabolic Activation: RAT, LIVER, S-9, AROCLOR, Method: STANDARD PLATE.
Where [4] appears, read: Test System: AMES SALMONELLA TYPHIMURIUM, Strain/Indicator: TA100, Metabolic Activation: NONE, Method: STANDARD PLATE.
Where [5] appears, read: Test System: AMES SALMONELLA TYPHIMURIUM, Strain/Indicator: TA100, Metabolic Activation: RAT, LIVER, S-9, AROCLOR, Method: STANDARD PLATE.
The mark [6] stands for this setting: Test System: AMES SALMONELLA TYPHIMURIUM, Strain/Indicator: TA1537, Metabolic Activation: NONE, Method: STANDARD PLATE.
Setting [7] is: Test System: AMES SALMONELLA TYPHIMURIUM, Strain/Indicator: TA100, Metabolic Activation: RAT, LIVER, S-9, 3-METHYLCHOLANTHRENE, Method: STANDARD PLATE.
Setting [8] is: Test System: AMES SALMONELLA TYPHIMURIUM, Strain/Indicator: TA98, Metabolic Activation: RAT, LIVER, S-9, AROCLOR 1254, Method: STANDARD PLATE.

`ClCC(CCl)(CCl)CCl`: the mutagenic call under setting [1] is “inactive; negative”; the mutagenic call under setting [2] is “inactive; negative”; the mutagenic call under setting [3] was “inactive; negative”; the mutagenic call under setting [4] was “inactive; negative”; the mutagenic call under setting [5] is “inactive; negative”; the mutagenic call (Test System: AMES SALMONELLA TYPHIMURIUM, Strain/Indicator: TA1535, Metabolic Activation: NONE, Method: STANDARD PLATE) was “inactive; negative”. Moreover, the mutagenic call is “inactive; negative” under setting [6]; “inactive; negative” (Test System: AMES SALMONELLA TYPHIMURIUM, Strain/Indicator: TA1538, Metabolic Activation: NONE, Method: STANDARD PLATE); “inactive; negative” (Test System: AMES SALMONELLA TYPHIMURIUM, Strain/Indicator: TA2637, Metabolic Activation: NONE, Method: STANDARD PLATE).

Turning to `c1ccc2c3c4c(cc5ccccc5c4cc2c1)C1=C3CCCC1`, the mutagenic call under setting [7] was “active; positive”.

With `O=C(c1ccccc1)N(O)c1ccc2c(c1)Cc1ccccc1-2`, the mutagenic call under setting [8] was “active; positive”.

In the case of `CNC(=O)NO`, the mutagenic call reads like this: under setting [2], “inactive; negative”; under setting [4], “inactive; negative”.

As to `COc1ccc(-c2nc(-c3ccc(OC)cc3)c(-c3ccc(OC)cc3)[nH]2)cc1`, the mutagenic call runs as follows: under setting [2], “active; positive”; (Test System: AMES SALMONELLA TYPHIMURIUM, Strain/Indicator: TA98, Metabolic Activation: RAT LIVER S-9, 3-METHYLCHOLANTHRENE, SODIUM PHENOBARBITAL, Method: STANDARD PLATE) “inactive; negative”; under setting [4], “inactive; negative”; (Test System: AMES SALMONELLA TYPHIMURIUM, Strain/Indicator: TA100, Metabolic Activation: RAT LIVER S-9, 3-METHYLCHOLANTHRENE, SODIUM PHENOBARBITAL, Method: STANDARD PLATE) “inactive; negative”.

For `O=C(O)c1cc2c(c3c1c([N+](=O)[O-])cc1ccccc13)OCO2`, the mutagenic call (Test System: AMES SALMONELLA TYPHIMURIUM, Strain/Indicator: TA98, Metabolic Activation: RAT, LIVER, S-9, Method: STANDARD PLATE) is “inactive; negative”; the mutagenic call under setting [4] is “active; positive”; the mutagenic call (Test System: AMES SALMONELLA TYPHIMURIUM, Strain/Indicator: TA100, Metabolic Activation: RAT, LIVER, CYTOSOL, Method: STANDARD PLATE) is “active; positive”; the mutagenic call (Test System: AMES SALMONELLA TYPHIMURIUM, Strain/Indicator: TA100, Metabolic Activation: RAT, LIVER, MICROSOMES, Method: STANDARD PLATE) is “active; positive”; the mutagenic call under setting [7] is “active; positive”; the mutagenic call under setting [6] was “active; positive”. Further, the mutagenic call reads like this: (Test System: AMES SALMONELLA TYPHIMURIUM, Strain/Indicator: YG1020, Metabolic Activation: NONE, Method: STANDARD PLATE) “active; positive”; (Test System: AMES SALMONELLA TYPHIMURIUM, Strain/Indicator: YG1021, Metabolic Activation: NONE, Method: STANDARD PLATE) “active; positive”; (Test System: AMES SALMONELLA TYPHIMURIUM, Strain/Indicator: YG1024, Metabolic Activation: NONE, Method: STANDARD PLATE) “active; positive”; (Test System: AMES SALMONELLA TYPHIMURIUM, Strain/Indicator: YG1025, Metabolic Activation: NONE, Method: STANDARD PLATE) “active; positive”; (Test System: AMES SALMONELLA TYPHIMURIUM, Strain/Indicator: YG1026, Metabolic Activation: NONE, Method: STANDARD PLATE) “active; positive”; (Test System: AMES SALMONELLA TYPHIMURIUM, Strain/Indicator: YG1029, Metabolic Activation: NONE, Method: STANDARD PLATE) “active; positive”.

On to `O=[N+]([O-])c1ccc2c(c1)Oc1cc(Cl)c(Cl)cc1O2`, for which the mutagenic call runs as follows: under setting [2], “active; positive”; under setting [3], “active; positive”; under setting [4], “active; positive”; under setting [5], “active; positive”.

With `CCC(=O)Nc1ccc(Cl)c(Cl)c1`, the mutagenic call was “inactive; negative” under setting [1]; “inactive; negative” (Test System: AMES SALMONELLA TYPHIMURIUM, Strain/Indicator: TA97, Metabolic Activation: RAT, LIVER, S-9, AROCLOR 1254, Method: STANDARD PLATE); “inactive; negative” under setting [2]; “inactive; negative” under setting [8]; “inactive; negative” under setting [4]; “inactive; negative” (Test System: AMES SALMONELLA TYPHIMURIUM, Strain/Indicator: TA100, Metabolic Activation: RAT, LIVER, S-9, AROCLOR 1254, Method: STANDARD PLATE). In addition, the mutagenic call reads like this: (Test System: AMES SALMONELLA TYPHIMURIUM, Strain/Indicator: TA104, Metabolic Activation: NONE, Method: STANDARD PLATE) “inactive; negative”; (Test System: AMES SALMONELLA TYPHIMURIUM, Strain/Indicator: TA104, Metabolic Activation: RAT, LIVER, S-9, AROCLOR 1254, Method: STANDARD PLATE) “inactive; negative”; (Test System: CHINESE HAMSTER OVARY, Strain/Indicator: CHO-K1-BH4 (HGPRT), Metabolic Activation: NONE) “inactive; negative”; (Test System: CHINESE HAMSTER OVARY, Strain/Indicator: CHO-K1-BH4 (HGPRT), Metabolic Activation: RAT, LIVER, S-9, AROCLOR 1254) “inactive; negative”.
